Source: ChEMBL document CHEMBL1201862, “PubChem BioAssay data set” (2004)
Activity calls are given as the source filed them.

How the values were obtained:
[1] = target: T1, DNA dC->dU-editing enzyme APOBEC-3G (Homo sapiens, UniProt Q9HC16); assay: Dose Response confirmation of small molecule APOBEC3G DNA Deaminase Inhibitors via a fluorescence-based single-stranded DNA deaminase assay. [Related pubchem assays (depositor defined):AID493012, AID493028]; type: functional
HEK293 = assay: EBV LMP1 TES2 canonical NF-kB signalling blockers – cell-based, HEK293, luciferase, cherry-pick, dose response (AID 588343); type: functional; settings: Homo sapiens
Caspase-6 = target: T2, Caspase-6 (Homo sapiens, UniProt P55212); assay: inhibition of CASP6 peptide cleavage – biochemical, VEID-R110 fluorescence, cherry-pick, dose response (AID 720632)
T2 sequence (P55212 whole entry): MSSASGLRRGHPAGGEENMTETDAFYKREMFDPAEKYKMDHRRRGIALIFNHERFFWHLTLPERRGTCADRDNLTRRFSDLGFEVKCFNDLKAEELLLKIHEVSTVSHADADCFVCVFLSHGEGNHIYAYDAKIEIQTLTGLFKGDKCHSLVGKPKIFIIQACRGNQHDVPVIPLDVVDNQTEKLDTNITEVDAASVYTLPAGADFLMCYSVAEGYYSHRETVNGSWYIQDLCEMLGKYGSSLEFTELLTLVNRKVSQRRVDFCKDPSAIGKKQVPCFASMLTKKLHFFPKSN

[2] = target: T3, Carboxy-terminal domain RNA polymerase II polypeptide A small phosphatase 1 (Homo sapiens, UniProt Q9GZU7); assay: CTDSP1 inhibitors, concentration-response, biochemical, absorbance readout, ultra-high-throughput screen actives (AID 540297); type: functional
T3 sequence (Q9GZU7 whole entry): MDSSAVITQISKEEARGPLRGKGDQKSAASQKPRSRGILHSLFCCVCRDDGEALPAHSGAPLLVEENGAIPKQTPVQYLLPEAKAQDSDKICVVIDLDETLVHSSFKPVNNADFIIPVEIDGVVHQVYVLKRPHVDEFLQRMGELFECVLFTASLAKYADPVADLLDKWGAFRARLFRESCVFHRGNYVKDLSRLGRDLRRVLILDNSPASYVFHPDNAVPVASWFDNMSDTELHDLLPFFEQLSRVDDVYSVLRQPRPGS

Cytochrome P450 3A4 = Cytochrome P450 3A4 (Homo sapiens, UniProt P08684);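 note: CYP3A4 tested as one member of a cytochrome P450 panel screen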
Chain of Cytochrome P450 3A4 (P08684 whole entry): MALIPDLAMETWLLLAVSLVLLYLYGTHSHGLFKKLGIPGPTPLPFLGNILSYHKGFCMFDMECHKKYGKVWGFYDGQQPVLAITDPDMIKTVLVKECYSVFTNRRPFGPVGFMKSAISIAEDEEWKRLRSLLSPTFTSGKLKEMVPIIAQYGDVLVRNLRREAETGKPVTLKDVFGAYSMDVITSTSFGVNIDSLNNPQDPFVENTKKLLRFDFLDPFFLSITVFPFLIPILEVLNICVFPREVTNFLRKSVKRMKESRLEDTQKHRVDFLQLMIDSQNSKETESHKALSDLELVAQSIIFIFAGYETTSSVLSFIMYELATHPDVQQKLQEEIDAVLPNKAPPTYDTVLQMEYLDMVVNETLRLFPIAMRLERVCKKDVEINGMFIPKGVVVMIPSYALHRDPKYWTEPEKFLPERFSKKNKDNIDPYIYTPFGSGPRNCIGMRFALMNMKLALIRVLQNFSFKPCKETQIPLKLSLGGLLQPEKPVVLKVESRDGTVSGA

Cytochrome P450 2C9 [3] = target: T4, Cytochrome P450 2C9 (Homo sapiens, UniProt P11712)
T4 sequence (P11712 whole entry): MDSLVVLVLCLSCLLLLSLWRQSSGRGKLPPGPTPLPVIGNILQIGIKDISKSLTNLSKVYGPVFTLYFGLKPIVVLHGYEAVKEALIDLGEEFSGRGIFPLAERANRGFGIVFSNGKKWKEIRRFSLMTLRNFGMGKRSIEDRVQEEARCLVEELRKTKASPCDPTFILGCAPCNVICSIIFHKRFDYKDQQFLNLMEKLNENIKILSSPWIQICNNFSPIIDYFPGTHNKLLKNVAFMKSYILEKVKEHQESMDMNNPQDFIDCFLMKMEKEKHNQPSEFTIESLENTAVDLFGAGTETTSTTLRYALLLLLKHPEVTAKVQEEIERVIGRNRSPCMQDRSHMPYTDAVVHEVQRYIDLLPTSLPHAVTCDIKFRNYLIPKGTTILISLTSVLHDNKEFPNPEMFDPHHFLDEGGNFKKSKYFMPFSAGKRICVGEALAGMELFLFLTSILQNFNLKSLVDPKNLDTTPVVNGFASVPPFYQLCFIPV

[4] = A cytotoxicity screen of small molecule inhibitors of the PhoP region in Salmonella typhi identified in the primary screen. [Related pubchem assays: 1850, 1864, 1985 ]; type: functional
Cytochrome P450 2C19 = Cytochrome P450 2C19 (Homo sapiens, UniProt P33261); assay: Cytochrome panel assay with activity outcomes. Panel member name: p450-cyp2c19 Compounds with AC50 equal or less than 10 uM are considered active; type: functional
Chain of Cytochrome P450 2C19 (P33261 whole entry): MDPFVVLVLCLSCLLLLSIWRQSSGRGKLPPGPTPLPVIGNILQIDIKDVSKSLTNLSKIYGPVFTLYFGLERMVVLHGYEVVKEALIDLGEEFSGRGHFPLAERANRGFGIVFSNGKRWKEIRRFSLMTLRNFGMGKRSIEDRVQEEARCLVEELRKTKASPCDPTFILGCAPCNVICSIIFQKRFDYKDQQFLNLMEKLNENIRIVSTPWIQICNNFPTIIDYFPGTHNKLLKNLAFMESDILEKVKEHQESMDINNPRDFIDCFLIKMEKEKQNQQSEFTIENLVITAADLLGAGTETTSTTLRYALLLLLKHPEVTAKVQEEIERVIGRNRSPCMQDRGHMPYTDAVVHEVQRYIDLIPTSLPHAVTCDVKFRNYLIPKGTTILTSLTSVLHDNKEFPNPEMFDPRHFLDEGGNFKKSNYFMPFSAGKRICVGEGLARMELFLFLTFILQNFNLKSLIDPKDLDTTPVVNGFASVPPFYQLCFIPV

[5] = target: Glyceraldehyde-3-phosphate dehydrogenase (Homo sapiens, UniProt P04406)
Chain of Glyceraldehyde-3-phosphate dehydrogenase (P04406 whole entry): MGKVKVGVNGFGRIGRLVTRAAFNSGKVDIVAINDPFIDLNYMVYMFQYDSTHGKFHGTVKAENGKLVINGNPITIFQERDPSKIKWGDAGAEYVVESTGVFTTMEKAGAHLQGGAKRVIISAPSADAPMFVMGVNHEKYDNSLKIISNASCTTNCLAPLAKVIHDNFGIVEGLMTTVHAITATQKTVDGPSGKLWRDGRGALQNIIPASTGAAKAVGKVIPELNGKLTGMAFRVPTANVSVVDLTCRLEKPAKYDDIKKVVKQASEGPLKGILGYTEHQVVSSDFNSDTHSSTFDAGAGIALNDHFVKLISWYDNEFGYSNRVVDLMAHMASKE

Cytochrome P450 1A2 = target: T5, Cytochrome P450 1A2 (Homo sapiens, UniProt P05177);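 note: PubChem cytochrome P450 panel assay, CYP1A2 panel member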
T5 sequence (P05177 whole entry): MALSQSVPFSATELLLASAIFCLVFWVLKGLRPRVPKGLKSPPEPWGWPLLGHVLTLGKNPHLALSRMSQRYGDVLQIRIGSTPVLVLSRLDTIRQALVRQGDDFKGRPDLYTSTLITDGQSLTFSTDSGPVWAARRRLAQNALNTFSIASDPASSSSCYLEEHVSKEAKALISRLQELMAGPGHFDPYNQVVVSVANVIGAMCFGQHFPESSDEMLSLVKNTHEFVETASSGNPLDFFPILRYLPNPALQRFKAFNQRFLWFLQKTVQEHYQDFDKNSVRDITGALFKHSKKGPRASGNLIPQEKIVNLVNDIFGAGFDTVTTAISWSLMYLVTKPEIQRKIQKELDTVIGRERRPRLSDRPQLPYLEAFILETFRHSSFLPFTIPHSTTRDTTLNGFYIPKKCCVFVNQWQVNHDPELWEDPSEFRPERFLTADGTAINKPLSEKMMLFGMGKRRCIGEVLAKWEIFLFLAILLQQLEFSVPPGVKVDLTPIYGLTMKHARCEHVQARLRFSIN

Cytochrome P450 2C9 [6] = target: T4, Cytochrome P450 2C9; remark: listed apart in the source
Prothrombin = Prothrombin (Homo sapiens, UniProt P00734); assay: Thrombin 1536 HTS Dose Response Confirmation. [Related pubchem assays: 1046 (Thrombin 1536 HTS; hits were confirmed in this assay)]; type: functional
[7] = target: Induced myeloid leukemia cell differentiation protein Mcl-1 (Homo sapiens, UniProt Q07820); type: functional
Chain of Induced myeloid leukemia cell differentiation protein Mcl-1 (Q07820 whole entry): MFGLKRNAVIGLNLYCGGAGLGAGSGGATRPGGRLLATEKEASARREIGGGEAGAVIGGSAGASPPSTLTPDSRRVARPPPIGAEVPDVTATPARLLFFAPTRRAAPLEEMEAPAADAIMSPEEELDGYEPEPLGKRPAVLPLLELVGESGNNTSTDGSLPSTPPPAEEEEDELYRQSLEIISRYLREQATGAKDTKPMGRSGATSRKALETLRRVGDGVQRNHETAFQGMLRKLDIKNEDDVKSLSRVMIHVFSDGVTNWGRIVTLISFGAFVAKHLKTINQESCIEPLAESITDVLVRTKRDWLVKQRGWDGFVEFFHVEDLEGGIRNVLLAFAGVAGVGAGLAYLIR

[8] = target: DNA dC->dU-editing enzyme APOBEC-3A (Homo sapiens, UniProt P31941); assay: Dose Response confirmation of small molecule APOBEC3A DNA Deaminase Inhibitors via a fluorescence-based single-stranded DNA deaminase assay. [Related pubchem assays (depositor defined):AID493011, AID493024]; type: functional
Chain of DNA dC->dU-editing enzyme APOBEC-3A (P31941 whole entry): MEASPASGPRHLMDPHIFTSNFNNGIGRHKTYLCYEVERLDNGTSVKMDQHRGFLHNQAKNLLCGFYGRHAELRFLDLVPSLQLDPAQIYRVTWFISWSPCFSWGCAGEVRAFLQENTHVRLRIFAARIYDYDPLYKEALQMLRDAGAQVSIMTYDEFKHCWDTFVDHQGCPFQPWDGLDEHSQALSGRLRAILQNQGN

[9] = target: T1, DNA dC->dU-editing enzyme APOBEC-3G; type: functional
[10] = loss of viability in HepG2 cells – cell-based, CellTiter-Glo, cherry-picked, cytotoxicity control for Shn3 inhibitor project, dose response (AID 624134); type: functional
[11] = non-specific 3'UTR reporter inhibition in Clone20-Shn3RL – cell-based, Renilla luciferase, cherry-picked, counter-screen for Shn3 inhibitor project, dose response (AID 624133); type: functional
[12] = reduction of Shn3 3'UTR-driven luciferase in osteoblasts – cell-based, Clone20 osteoblasts, firefly luciferase, cherry-picked, dose response (AID 624132); type: functional;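 note: firefly luciferase luminescence from reporter carrying the Shn3 3'UTR in osteoblasts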
Paired box protein Pax-8 = Paired box protein Pax-8 (Homo sapiens, UniProt Q06710); assay: PAX8 transcriptional activity inhibition in RMG-I – RMG-I cells, luciferase, cherry-pick, dose response (AID 687027); type: functional, cell-based;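 note: luciferase reporter driven by Pax8 target thyroperoxidase promoter measured by SteadyGlo luminescence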
Chain of Paired box protein Pax-8 (Q06710 whole entry): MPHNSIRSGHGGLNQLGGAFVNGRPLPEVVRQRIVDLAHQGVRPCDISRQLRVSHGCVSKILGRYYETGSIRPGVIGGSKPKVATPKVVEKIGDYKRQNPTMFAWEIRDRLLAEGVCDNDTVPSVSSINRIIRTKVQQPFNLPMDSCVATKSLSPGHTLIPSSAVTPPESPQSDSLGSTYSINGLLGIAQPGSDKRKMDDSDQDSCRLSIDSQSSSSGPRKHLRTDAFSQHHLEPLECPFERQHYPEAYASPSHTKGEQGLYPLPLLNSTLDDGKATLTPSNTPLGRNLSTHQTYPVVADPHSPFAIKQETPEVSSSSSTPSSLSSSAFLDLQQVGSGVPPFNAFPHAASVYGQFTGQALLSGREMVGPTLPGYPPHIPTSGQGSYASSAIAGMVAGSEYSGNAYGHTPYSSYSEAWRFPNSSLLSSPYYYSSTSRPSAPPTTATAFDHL

[13] = OVCAR8 cell viability loss – plate reader, dry powder samples, PAX8 project, dose response (AID 743197); type: functional, cell-based; settings: OVCAR-8

T1 sequence (Q9HC16 whole entry): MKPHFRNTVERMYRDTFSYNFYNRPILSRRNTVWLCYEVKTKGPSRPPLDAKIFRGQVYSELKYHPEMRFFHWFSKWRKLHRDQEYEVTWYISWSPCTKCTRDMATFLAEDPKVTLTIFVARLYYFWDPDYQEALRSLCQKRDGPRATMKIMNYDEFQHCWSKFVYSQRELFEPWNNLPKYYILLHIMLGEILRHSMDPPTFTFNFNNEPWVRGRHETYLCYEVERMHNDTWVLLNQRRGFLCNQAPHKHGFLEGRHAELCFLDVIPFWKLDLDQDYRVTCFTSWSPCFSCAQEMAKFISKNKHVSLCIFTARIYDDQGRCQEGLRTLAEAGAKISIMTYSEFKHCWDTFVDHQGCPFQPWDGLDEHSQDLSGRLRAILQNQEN

CC(C)Cn1c(S)nnc1-c1ccc(F)cc1
IC50 [1]: 9.54 µM (active)

O=C(NOCc1ccccc1)c1ccc(Cl)cc1Cl
AC50 (HEK293): 3.33 µM (active)

O=S(=O)(Nc1ccccc1Cl)c1cccc2nsnc12
AC50 (Caspase-6): 25.9 µM (active)
IC50 [2]: 11.2 µM (active)

CN1C(=O)NC(c2ccc(O)cc2)C(C(=O)c2cccs2)C1(O)C(F)(F)F (stereo not drawn)
AC50 (Cytochrome P450 3A4): 25.1 µM (inconclusive)
AC50 (Cytochrome P450 2C9 [3]): 39.8 µM (inconclusive)
EC50 [4]: > 50 µM (active)
AC50 (Cytochrome P450 2C19; read-out: AC50): 15.8 µM (inconclusive)

Cc1ccc(NC(=O)c2sccc2C)cc1[N+](=O)[O-]
EC50 [4]: > 50 µM (active)

C=CCc1cccc2cc(C(=O)Nc3cccc(C(=O)O)c3)c(=O)oc12
IC50 [5]: > 100 µM (not active)

CCCCC(=O)NC(=S)Nc1cccc(NC(=O)CC)c1
AC50 (Cytochrome P450 3A4): 20 µM (inconclusive)
AC50 (Cytochrome P450 1A2): 15.8 µM (inconclusive)
AC50 (Cytochrome P450 2C9 [6]): inconclusive

CCN1CCN(CC(=O)c2cc(OC)c(OC)c(OC)c2)CC1
IC50 (Prothrombin): > 50 µM (not active)

COc1cc(C2C3=C(O)c4ccccc4C3=Nc3nc(N)nc(O)c32)ccc1O (stereo not drawn)
IC50 [7]: 2.76 µM (active)

CC(C[N+](C)(C)C)OC(=O)C1(c2ccccc2)CCCC1 (stereo not drawn)
IC50 [8]: 2.56 µM (active)
IC50 [9]: 3.58 µM (active)

CN(C)c1ccc(C=Cc2ccnc3c(O)cccc23)cc1
AC50 [10]: 52.7 µM (active)
AC50 (HEK293): 10 µM (active)
AC50 [11]: 2.57 µM (active)
AC50 [12]: 1.43 µM (active)

Cc1ccc(S(=O)(=O)Nc2csc(C)c2C(=O)O)cc1
AC50 (Caspase-6): 4.99 µM (active)
IC50 [2]: 3.94 µM (active)

COc1ccc(CN2[C@H](CO)[C@H]3c4ccccc4NC[C@H]32)cc1
AC50 (Paired box protein Pax-8): 11.2 µM (active)
AC50 [13]: > 70 µM (inactive)

CCN1C[C@]2(COC(=O)c3ccccc3N3C(=O)C[C@H](C)C3=O)CC[C@H](OC)[C@]34[C@@H]5C[C@@H]6[C@H](OC)[C@H]5[C@](O)(C[C@@H]6OC)C(O)([C@@H]13)[C@@H](OC)[C@@H]24
AC50 (Cytochrome P450 1A2): 39.8 µM (inconclusive)
AC50 (Cytochrome P450 2C9 [6]): inconclusive

O=[N+]([O-])c1ccc(N2CCNCC2)cc1NCc1cccnc1
EC50 [4]: > 50 µM (active)

CO[C@H]1CN(C)C(=O)c2ccc(NS(=O)(=O)c3cccc(Cl)c3)cc2OC[C@@H](C)NC[C@H]1C
AC50 (Caspase-6): 19.7 µM (active)

CCCCN1CCC(COC(=O)c2cc(Cl)c(N)c3c2OCCO3)CC1
AC50 (Cytochrome P450 3A4): 3.16 µM (inconclusive)
AC50 (Cytochrome P450 2C9 [6]): inconclusive

Cn1cnc(CCN)c1 [N-METHYLHISTAMINE]
AC50 (Cytochrome P450 2C19): inconclusive
AC50 (Cytochrome P450 2C9 [6]): inconclusive
